Reference: US10959995B2, “Methods of acute restoration of vascular compliance” (Alumend, LLC, priority 2013, dated 2021)
“Also recorded” adds a separate entry of the source.

Key:
artery = test: Arterial compression with other photoactivated material; conditions: FIG. 13
Procedure: Singlet oxygen generating species, such as Rose Bengal, riboflavin, and methylene blue were tested to determine if they would be effective at arterial compression.

[1] = system: hard (calcified) and soft plaque in diseased arteries; test: Plaque penetration: diseased arteries soaked with plaque softening composition, light activated, visual and histological examination; design: species or system human
Procedure: Diseased arteries were obtained from limb amputations (leg) due to advanced Periperal Arterial Disease (PAD) from patients at Avera McKennan hospital. The received arteries were evaluated and chosen such that the diseased section was of reasonable size to accommodate the treatment catheter balloon length being used. The catheter balloon diameter used was also matched to the diameter of the artery and capable of achieving a 1:1.25 (ratio of artery diameter to balloon diameter) overstretch. The artery was laid in a petri dish and an angioplasty balloon was inserted and inflated for 60 seconds to impart the desired overstretch. While the angioplasty balloon was inflated a permanent marker was used to define the treatment zone (where the overstretch was imparted by the balloon) on the outer surface of the artery. The angioplasty balloon was deflated and removed. The inner lumen of the diseased artery was exposed to a plaque softening composition comprising a compound of formula (V) naphthalimide formulation (2 mg/mL in phosphate buffered saline, pH=7.4) for a period of 5 minutes. For the purpose of filling the artery, one end was clamped, the artery was held upright and a syringe was used to dispense the naphthalimide solution until the inner lumen was filled. The open end of the artery was then clamped and the soaking period of 5 minutes commenced. […] Arteries were cut open lengthwise and the treated section was evaluated by visual examination.
Prior to cutting the artery for visual examination samples from the treated and untreated sections were collected and preserved for histological examination. […] After this time, samples were stored in a −80° C. freezer until ready for further analysis. […] The crystalline nature of hard plaque is readily visible without staining. Under this magnification the crystalline structure of the calcific plaque was readily visible, as shown in FIG. 8 the dark area between the two lighter colored areas of the media. […]

artery tissue = test: Angioplasty with plaque-softening composition and photoactivation: fissure observation; design: species or system human
Procedure: The tissue was an artery approximately 7.4 mm in diameter. An Ultra-thin SDS 8 mm×30 mm catheter was used to dilate the artery to 7.55 mm (approximately a 2% overstretch). A fissure or a possible dissection running down the length of the tissue sample was observed.
A section (6.5 cm in length) of artery was exposed to the composition for 5 minutes. An 80 mm catheter was used to impart a 2% overstretch to the artery. The angioplasty was followed by photoactivation at 1800 mW for 60 seconds using the same 80 mm catheter with a 60 mm light fiber centered in the catheter.
A catheter with an 80 mm treatment zone balloon was used however the photoactivating light fiber was only 60 mm in length. During activation it was noted that the light fiber was shifted distally in the catheter. This meant that the distal end of the artery was receiving photoactivation, however, the proximal end received little or no light. A fissure down the length of the artery was again observed.

[2] = Storage stability of naphthalimide dimer (solution and powder); format: physicochemical
Text: A preparative HPLC approach was used to isolate and specifically purify the compound of formula (V) dimer from the compound of formula (V) naphthalimide product produced from the ethanol crystallization. The HPLC method used was based on the purity method outlined above; however, method modifications were made to replace acetonitrile with ethanol and TFA with acetic acid in the mobile phase. The preparative separation utilized a C18 column (X-bridge, 10 μm, 19×250 mm, Waters). The mobile phase consisted of mobile phase A, 0.1% acetic acid (aq), and mobile phase B, 9:1 ethanol:water (0.1% v/v acetic acid). The column was pre-equilibrated at a starting mobile phase of 95% A:5% B for 20 minutes, at the start of the gradient was a 2 minute hold followed by a linear gradient to 90% B at 40 minutes and a 10 minute hold. An injection volume of 8.5 mL (12 mg/mL purified compound of formula (V)) and flow rate of 8.5 mL/minute were used as well as a detector wavelength of 440 nm. The compound of formula (V) fractions were collected and analyzed using the analytical purity method presented above. Fractions meeting a minimum purity criterion were combined and the solvent driven off by rotovapping the solution to dryness. […] Finally the product was quantitatively transferred from the round bottom flask to a freeze drying flask by dissolving the product in a minimal amount of deionized water. […]

[3] = system: hard and soft plaque from common and lower femoral artery; test: Tissue immersion: plaque hardness by manual manipulation with forceps; design: species or system human; conditions: PBS pH 7.4
Text: A sample of human tissue from the common and lower femoral artery was received. It was stored in saline and refrigerated until use. Based upon visual and tactile observations, the arteries were approximately 7-8 mm in diameter and contained evidence of both hard and soft plaque. The soft plaque has a yellow fatty appearance that is distinguishable from the vessel wall. The hard plaque presents itself as hard pieces of material that can be pulled (with a forceps) from the soft plaque. Sections of the artery suitable for catheter work were segregated and stored in phosphate buffered saline (PBS), pH=7.4. From the remaining arterial sections, pieces of tissue containing both hard and soft plaque were removed. These pieces were either placed in a solution of PBS (pH=7.4), or dimeric naphthalimide, such as a compound of formula (V) (which is in PBS, pH=7.4). Prior to immersion in either solution the relative hardness of the plaque was evaluated via manual manipulation with a forcep. After a 5 minute soak in solution (typical exposure time), no difference in the samples soaked in PBS was noticed (control). […] The samples were then left in their respective solutions for an additional 90 minutes.

[4] = 2 mg/mL in PBS pH 7.4, 5 minute soak, 447 nm light activation 60 seconds

With `O=C([O-])c1c(Cl)c(Cl)c(Cl)c(Cl)c1-c1c2cc(I)c(=O)c(I)c-2oc2c(I)c([O-])c(I)cc12.[Na+].[Na+]` [Rose Bengal] the “efficacy at arterial compression” value (artery) was “No efficacy”.

With `NCCOCCOCCNc1ccc2c3c(cccc13)C(=O)N(CCOCCOCCN1C(=O)c3cccc4c(NCCOCCOCCN)ccc(c34)C1=O)C2=O` [compound of formula (V)] the “tacking of intimal flaps” value [1, 4] was “definitive observation of tacking of intimal flaps”, the “visual/tactile observation of plaque in treated region” value [1, 4] was “apparent softened plaque; also recorded: looked and felt softer and creamier” and the “calcium crystals in treated sections under microscope” value ([1]; treated vs untreated sections of artery) was “less evidence of calcium crystals”. The repair of fissure (artery tissue; angioplasty then composition, distal region with adequate photoactivation) was “there appeared to be a seam indicating repair”, the “fissure in opened artery” value (artery tissue; composition 5 minutes, then angioplasty 2% overstretch, photoactivation 1800 mW 60 seconds) was “no fissure observed” and the “degradation of dimer in powder form” value ([2]; periods exceeding one year of storage in a dessicator at room temperature) was “no evidence of degradation”. For the same compound, the “stability of dimer solution” value ([2]; solution at pH 7.4, periods up to one year) was “excellent stability”, the “plaque hardness after soak” value ([3]; 5 minute soak in solution) was “slight softening” and the “plaque hardness after soak” value ([3]; additional 90 minutes in solution) was “significantly softer and more pliable”.

In the case of `CN(C)c1ccc2nc3ccc(=[N+](C)C)cc-3sc2c1` [methylene blue], the “efficacy at arterial compression” value (artery) is reported as “No efficacy”.

In the case of `Cc1cc2nc3c(=O)[nH]c(=O)nc-3n(C[C@H](O)[C@H](O)[C@H](O)CO)c2cc1C` [riboflavin], the “efficacy at arterial compression” value (artery) is reported as “No efficacy”.
